Source: patent US12351581B2, “Compounds for FGFR inhibition” (Cogent Biosciences, Inc., priority 2023, dated 2025)
Read-outs that look alike come from different tables or passages of the source.

Tests used:
[1] = biological target: T1, FGFR2 N549H (Homo sapiens, UniProt P21802, N549H); assay: FGFR mutant enzyme assay (HTRF KinEASE-TK); assay type: biochemical; details: ATP 0.9 uM
T1 construct: biochemical assays using purified intracellular domains of the respective isoforms; purchased Carna Bioscience 08-532
Procedure, shortened: (§1)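 Purified intracellular kinase domains, enzyme pre-incubated 30 min with compound (11-point 1:3 dilutions, typically 10,000-0.17 nM), then ATP plus 0.5 uM TK-peptide, 60 min at room temperature in HEPES pH7.5 with Mg2+/Mn2+. HTRF 665/615 ratio converted to percent of control; IC50 from four-parameter logistic fit.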

[2] = biological target: T2, FGFR2 V564F (Homo sapiens, UniProt P21802, V564F); assay: FGFR mutant enzyme assay (HTRF KinEASE-TK); assay type: biochemical; details: ATP 1.5 uM
T2 construct: biochemical assays using purified intracellular domains of the respective isoforms; purchased SignalChem Biotech F05-12FG
Procedure, shortened: as §1

[3] = biological target: T3, FGFR2 V564I (Homo sapiens, UniProt P21802, V564I); assay: FGFR mutant enzyme assay (HTRF KinEASE-TK); assay type: biochemical; details: ATP 0.4 uM
T3 construct: biochemical assays using purified intracellular domains of the respective isoforms; purchased Carna Bioscience 08-546
Procedure, shortened: as §1

[4] = biological target: T4, FGFR2 (Homo sapiens, UniProt P21802); assay: FGFR wild type enzyme assay (HTRF KinEASE-TK); assay type: biochemical; details: ATP 2 uM
T4 construct: biochemical assays using purified intracellular domains of the respective isoforms; purchased Carna Bioscience 08-134
Procedure, shortened: as §1

[5] = biological target: FGFR2-WT (Homo sapiens, UniProt P21802); assay: Phosphorylated FGFR2-WT (pFGFR2-WT) cell assay, KATOIII cells; assay type: cell-based; details: 1 hour incubation, phospho FGFR2 HTRF
Procedure, shortened: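 KATOIII cells treated 1 h at 37 °C with threefold compound dilutions (10 μM to 0.5 nM). Lysate phospho-FGFR2 (Tyr653/654) read by HTRF.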

[6] = compound table after the examples, read-out: Enz FGFR2

Sequence of FGFR2-WT (P21802 430-767 limits assumed): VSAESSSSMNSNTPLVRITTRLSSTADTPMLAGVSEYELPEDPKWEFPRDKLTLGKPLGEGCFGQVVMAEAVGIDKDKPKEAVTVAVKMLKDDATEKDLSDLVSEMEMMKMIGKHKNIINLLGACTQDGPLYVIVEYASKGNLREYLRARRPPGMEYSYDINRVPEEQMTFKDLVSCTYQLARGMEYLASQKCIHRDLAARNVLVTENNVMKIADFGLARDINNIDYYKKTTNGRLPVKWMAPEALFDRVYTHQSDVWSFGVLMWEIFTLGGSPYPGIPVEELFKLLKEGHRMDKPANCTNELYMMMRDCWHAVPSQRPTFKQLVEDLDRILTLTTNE
T3 sequence (P21802 399-821 V564I limits assumed): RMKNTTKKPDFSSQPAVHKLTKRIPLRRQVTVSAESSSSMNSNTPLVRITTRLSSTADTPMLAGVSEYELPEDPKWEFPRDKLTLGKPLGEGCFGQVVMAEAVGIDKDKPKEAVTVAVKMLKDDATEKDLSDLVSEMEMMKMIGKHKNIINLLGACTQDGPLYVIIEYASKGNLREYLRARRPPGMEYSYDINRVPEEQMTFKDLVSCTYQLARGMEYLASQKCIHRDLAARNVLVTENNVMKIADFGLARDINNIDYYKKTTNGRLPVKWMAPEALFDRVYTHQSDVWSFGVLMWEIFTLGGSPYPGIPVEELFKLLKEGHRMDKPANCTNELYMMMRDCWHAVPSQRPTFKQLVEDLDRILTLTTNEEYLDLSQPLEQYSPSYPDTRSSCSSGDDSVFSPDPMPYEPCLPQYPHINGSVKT
T1 sequence (P21802 399-821 N549H limits assumed): as the sequence (P21802 399-821 V564I limits assumed) above, with N151H, I166V counted along it
T4 sequence (P21802 399-821 limits assumed): as the sequence (P21802 399-821 V564I limits assumed) above, with I166V counted along it
T2 sequence (P21802 399-821 V564F limits assumed): as the sequence (P21802 399-821 V564I limits assumed) above, with I166F counted along it

SMILES | IC50 [1] [nM] | IC50 [2] [nM] | IC50 [3] [nM] | IC50 ([4]; Table 3, read-out: FGFR2 Enz) [nM] | IC50 [4, 6] [nM] | IC50 [5] [nM]
Cc1c(-c2cc(O[C@H](C)c3ccc(F)cn3)c3c(C#N)cnn3c2)cnn1[C@@H]1CCC[C@@H](O)C1 [Compound 68, 4-((R)-1-(5-fluoropyridin-2-yl)ethoxy)-6-(1-((1R,3R)-3-hydroxycyclohexyl)-5-methyl-1H-pyrazol-4-yl)pyrazolo[1,5-a]pyridine-3-carbonitrile] | 1 | 3 | 4 | 1 | 1 | 8
Cc1c(-c2cc(O[C@@H](c3ccc(F)cn3)C(F)(F)F)c3c(C#N)cnn3c2)cnn1[C@H]1CC[C@H](O)CC1 [Compound 69, 6-(1-((1r,4S)-4-hydroxycyclohexyl)-5-methyl-1H-pyrazol-4-yl)-4-((S)-2,2,2-trifluoro-1-(5-fluoropyridin-2-yl)ethoxy)pyrazolo[1,5-a]pyridine-3-carbonitrile] | 1 | 1.6 | 1.6 | 0.4 | 0.4 | 2
Cc1c(-c2cc(O[C@H](c3ccc(F)cn3)C(F)(F)F)c3c(C#N)cnn3c2)cnn1[C@H]1CC[C@H](O)CC1 [Compound 70, 6-(1-((1r,4R)-4-hydroxycyclohexyl)-5-methyl-1H-pyrazol-4-yl)-4-((R)-2,2,2-trifluoro-1-(5-fluoropyridin-2-yl)ethoxy)pyrazolo[1,5-a]pyridine-3-carbonitrile] | 160 | 219 | 420 | 110 | 110 | 790

Next, values leading:

IC50 [1] [nM] | IC50 [2] [nM] | IC50 [3] [nM] | IC50 ([4]; Table 3, read-out: FGFR2 Enz) [nM] | IC50 [4, 6] [nM] | IC50 [5] [nM] | SMILES
1 | 2 | 3 | 1 | 1 | 4.5 | Cc1c(-c2cc(O[C@H](C)c3ccc(F)cn3)c3c(C#N)cnn3c2)cnn1[C@H]1CCC[C@@H](O)C1 [Compound 71, 4-((R)-1-(5-fluoropyridin-2-yl)ethoxy)-6-(1-((1S,3R)-3-hydroxycyclohexyl)-5-methyl-1H-pyrazol-4-yl)pyrazolo[1,5-a]pyridine-3-carbonitrile]
0.45 | 1 | 1.5 | 0.4 | 0.4 | 3 | Cc1c(-c2cc(O[C@H](C)c3ccc(F)cn3)c3c(C#N)cnn3c2)cnn1[C@@H]1CCC[C@H](O)C1 [Compound 72, 4-((R)-1-(5-fluoropyridin-2-yl)ethoxy)-6-(1-((1R,3S)-3-hydroxycyclohexyl)-5-methyl-1H-pyrazol-4-yl)pyrazolo[1,5-a]pyridine-3-carbonitrile]
